According to PMC10458893, “Design of Protegrin-1 Analogs with Improved Antibacterial Selectivity” (Pharmaceutics, 2023):
≈ marks a conversion by molar mass, not a printed value. Read-outs that look alike come from different tables or passages of the source. Positions of bridges follow the written chain, without caps; N, C: chain ends. Residues, ends and D or L forms follow the SMILES beside them.

How the values were obtained:
[1] = tested on: human keratinocyte cell line (HaCaT); assay: Cytotoxicity MTT assay; type: cell-based; settings: 18 h, 128
Description: In order to evaluate the cytotoxicity of the peptides against a human keratinocyte cell line (HaCaT, Cat. No. 300493) (Cell Lines Service, Köln, Germany), the colorimetric 3-(4,5-dimethylthiazol-2-yl)-2,5-diphenyltetrazolium bromide (MTT) dye reduction assay was performed, as described in a previous publication. Wells containing no peptide were used as a 100% survival control. Each peptide was tested in two separate experiments to ensure the reliability of the results.

E. coli BW 25113 = type: cell-based; settings: two-fold serial dilutions, 24 h incubation, resazurin read-out; median of at least three independent experiments in triplicate
Description: (§1) The antimicrobial activity of the peptides was determined using two-fold serial dilutions in sterile 96-well flat-bottom polystyrene microplates (Eppendorf, Hamburg, Germany) (Cat. No. 0030730011), as previously described. The following strains of bacteria were used: E. coli ATCC 25922, E. coli ML35p (ATCC collection), E. coli BW 25113 (Keio collection), Pseudomonas aeruginosa PAO1 (ATCC collection), P. aeruginosa ATCC 27853, Klebsiella pneumoniae ATCC 700603, Staphylococcus aureus 209P (ATCC collection), S. aureus ATCC 29213, and Micrococcus luteus B-1314 (VKM collection). Acinetobacter baumannii (strain XDR CI 2675) was provided by the I.M. Sechenov First Moscow State Medical University hospital. After a 24 h incubation period, the metabolic activity of the bacteria was assessed by adding 20 µL of a redox indicator, resazurin (Sigma-Aldrich, St. Louis, MO, USA), at a concentration of 0.1 mg/mL, to the wells. The plate was then incubated for a further two hours. The minimum inhibitory concentration (MIC) was determined as the lowest concentration of the peptide at which no color change in the resazurin indicator was observed. The results were presented as median values, which were determined based on at least three independent experiments carried out in triplicate.

[2] = tested on: Acinetobacter baumannii (strain XDR CI 2675); type: cell-based
Description: as §1

E. coli ML35p = type: cell-based
Description: as §1

all the test strains = type: cell-based; settings: geometric mean over the 10 test strains
Description: as §1

E. coli ATCC 25922 [3] = type: cell-based; settings: ATCC 25922, 24 h
Description: as §1

M. luteus B-1314 = type: cell-based, Micrococcus luteus; settings: B-1314, 24 h
Description: as §1

[4] = tested on: K. pneumoniae ATCC 700603; type: cell-based, Klebsiella pneumoniae; settings: ATCC 700603, 24 h
Description: as §1

P. aeruginosa PAO1 = type: cell-based, Pseudomonas aeruginosa; settings: PAO1, 24 h
Description: as §1

P. aeruginosa ATCC 27853 = type: cell-based, Pseudomonas aeruginosa; settings: ATCC 27853, 24 h
Description: as §1

S. aureus 209P = type: cell-based, Staphylococcus aureus; settings: 24 h
Description: as §1

S. aureus ATCC 29213 = type: cell-based, Staphylococcus aureus; settings: ATCC 29213, 24 h
Description: as §1

[5] = tested on: freshly isolated human erythrocytes (hRBCs); assay: Hemolysis assay (hemoglobin release); type: cell-based; settings: red cells of human, 64
Excerpt: To assess the hemolytic activity of the compounds, freshly isolated human erythrocytes (hRBCs) were used according to the methodology described in a previous study. Melittin was used as a positive peptide control that induces significant hemolysis. Isotonic phosphate buffer (PBS) served as a negative control, while 0.1% Triton X-100 solution was used as a control for complete hemolysis.

E. coli ATCC 25922 [6] = assay: Systemic septicemia infection mice model; type: in vivo; settings: BALB/c mice n = 5, i.p. E. coli ATCC 25922 10^6 CFU with mucin; 10 mg/kg i.p. at 1 h and 4 h; 7 days
Description: Experiments were performed with male and female 8–10-week-old BALB/c mice (22–24 g, “Andreevka” laboratory animal nursery FMBA, Russia) according to the previously described method. Briefly, a total of 3 groups of 5 mice per group were infected by intraperitoneal (i.p.) injection of the bacterial inoculum (E. coli ATCC 25922), 10^6 colony forming units (CFU) per animal, in the presence of mucin. All the animals received two i.p. injections: 1 h and 4 h after bacterial challenge. The first group received ciprofloxacin (Sigma-Aldrich, St. Louis, MO, USA) as a positive control at a dose of 10 mg/kg per injection. The second group received peptide [V16R] at a dose of 5 mg/kg per injection. The third group received PBS as a vehicle control. Animals were monitored for 7 days post-infection. All the surviving mice were euthanized by CO2 asphyxiation. The spleen was aseptically removed, homogenized, serially diluted, and plated on Endo agar to detect CFU in a sample.

[7] = strain XDR CI 2675, two-fold serial dilutions, 24 h incubation, resazurin read-out, median of at least three independent experiments in triplicate
[8] = two-fold serial dilutions, 24 h incubation, resazurin read-out, median of at least three independent experiments in triplicate

Row | Structure (SMILES) | Cell Viability, % (128 μM) [1] | MIC, E. coli BW 25113 (E. coli BW 25113) [µM] | MIC, A. baumannii ([2]; strain XDR CI 2675, 24 h) [µM] | MIC, E. coli ML35p (E. coli ML35p; ML35p, 24 h) [µM] | MIC (GM), geometric mean of the peptide's MICs against all the test strains (all the test strains) [µM] | MIC, E. coli ATCC 25922 (E. coli ATCC 25922 [3]) [µM] | MIC, M. luteus B-1314 (M. luteus B-1314) [µM] | MIC, K. pneumoniae ATCC 700603 [4] [µM] | MIC, P. aeruginosa PAO1 (P. aeruginosa PAO1) [µM] | MIC, P. aeruginosa ATCC 27853 (P. aeruginosa ATCC 27853) [µM] | MIC, S. aureus 209P (S. aureus 209P) [µM] | MIC, S. aureus ATCC 29213 (S. aureus ATCC 29213) [µM] | Hemolytic activity, % (64 μM) [5] | Survival of mice (E. coli ATCC 25922 [6]) | MIC, A. baumannii [2, 7] [µM] | MIC, E. coli ML35p (E. coli ML35p; [8]) [µM]
1 | CC(C)C[C@H](NC(=O)[C@H](CCCNC(=N)N)NC(=O)CNC(=O)CNC(=O)[C@@H](N)CCCNC(=N)N)C(=O)N[C@H]1CSSC[C@@H](C(=O)N[C@H](C(=O)NCC(=O)N[C@@H](CCCNC(=N)N)C(=O)O)C(C)C)NC(=O)[C@H](C)NC(=O)[C@@H]2CSSC[C@H](NC(=O)[C@H](Cc3ccc(O)cc3)NC1=O)C(=O)N[C@@H](CCCNC(=N)N)C(=O)N[C@@H](CCCNC(=N)N)C(=O)N[C@@H](CCCNC(=N)N)C(=O)N[C@@H](Cc1ccccc1)C(=O)N2 [[V14A]] (H-RGGRLCYCRRRFCACVGR-OH; disulfide 6-15, 8-13; N-terminus and C-terminus assumed) | 12.05 (± 2.8) % | 0.125 (≈ 0.266 µg/mL) | 0.125 (≈ 0.266 µg/mL) | 0.25 (≈ 0.532 µg/mL) | 0.4 | 0.5 (≈ 1.06 µg/mL) | 0.5 (≈ 1.06 µg/mL) | 1 (≈ 2.13 µg/mL) | 0.5 (≈ 1.06 µg/mL) | 0.25 (≈ 0.532 µg/mL) | 1 (≈ 2.13 µg/mL) | 1 (≈ 2.13 µg/mL) | 39.0 (±10.2) % |  |  | 
2 | O=C(O)c1cn(C2CC2)c2cc(N3CCNCC3)c(F)cc2c1=O [ciprofloxacin, reference compound] |  |  |  |  |  |  |  |  |  |  |  |  |  | survival of all mice |  | 
3 | CC(C)[C@H](NC(=O)[C@@H]1CSSC[C@H](NC(=O)[C@H](CCCNC(=N)N)NC(=O)[C@H](CCCNC(=N)N)NC(=O)CNC(=O)CNC(=O)[C@@H](N)CCCNC(=N)N)C(=O)N[C@@H](Cc2ccc(O)cc2)C(=O)N[C@H]2CSSC[C@H](NC(=O)[C@H](Cc3ccccc3)NC(=O)[C@H](CCCNC(=N)N)NC(=O)[C@H](CCCNC(=N)N)NC(=O)[C@H](CCCNC(=N)N)NC2=O)C(=O)N[C@@H](C(C)C)C(=O)N1)C(=O)NCC(=O)N[C@@H](CCCNC(=N)N)C(=O)O [[L5R]] (H-RGGRRCYCRRRFCVCVGR-OH; disulfide 6-15, 8-13; N-terminus and C-terminus assumed) | 7.7 (± 4.64) % | 0.25 (≈ 0.55 µg/mL) |  |  | 1.2 | 1 (≈ 2.2 µg/mL) | 1 (≈ 2.2 µg/mL) | 8 (≈ 17.6 µg/mL) | 1 (≈ 2.2 µg/mL) | 1 (≈ 2.2 µg/mL) | 4 (≈ 8.8 µg/mL) | 4 (≈ 8.8 µg/mL) | 14.1 (±2.13) % |  | 0.5 (≈ 1.1 µg/mL) | 0.5 (≈ 1.1 µg/mL)
4 | CC(C)C[C@H](NC(=O)[C@H](CCCNC(=N)N)NC(=O)CNC(=O)CNC(=O)[C@@H](N)CCCNC(=N)N)C(=O)N[C@H]1CSSC[C@@H](C(=O)N[C@H](C(=O)NCC(=O)N[C@@H](CCCNC(=N)N)C(=O)O)C(C)C)NC(=O)[C@H](C(C)C)NC(=O)[C@@H]2CSSC[C@H](NC(=O)[C@H](CCCNC(=N)N)NC1=O)C(=O)N[C@@H](CCCNC(=N)N)C(=O)N[C@@H](CCCNC(=N)N)C(=O)N[C@@H](CCCNC(=N)N)C(=O)N[C@@H](Cc1ccccc1)C(=O)N2 [[Y7R]] (H-RGGRLCRCRRRFCVCVGR-OH; disulfide 6-15, 8-13; N-terminus and C-terminus assumed) | 67.6 (± 8.68) % | 0.5 (≈ 1.07 µg/mL) |  |  | 2.5 | 0.5 (≈ 1.07 µg/mL) | 2 (≈ 4.3 µg/mL) | 8 (≈ 17.2 µg/mL) | 8 (≈ 17.2 µg/mL) | 4 (≈ 8.6 µg/mL) | 16 (≈ 34.4 µg/mL) | 16 (≈ 34.4 µg/mL) | 2.1 (±0.53) % |  | 0.5 (≈ 1.07 µg/mL) | 0.5 (≈ 1.07 µg/mL)
5 | CC(C)C[C@H](NC(=O)[C@H](CCCNC(=N)N)NC(=O)CNC(=O)CNC(=O)[C@@H](N)CCCNC(=N)N)C(=O)N[C@H]1CSSC[C@@H](C(=O)N[C@@H](C)C(=O)NCC(=O)N[C@@H](CCCNC(=N)N)C(=O)O)NC(=O)[C@H](C(C)C)NC(=O)[C@@H]2CSSC[C@H](NC(=O)[C@H](Cc3ccc(O)cc3)NC1=O)C(=O)N[C@@H](CCCNC(=N)N)C(=O)N[C@@H](CCCNC(=N)N)C(=O)N[C@@H](CCCNC(=N)N)C(=O)N[C@@H](Cc1ccccc1)C(=O)N2 [[V16A]] (H-RGGRLCYCRRRFCVCAGR-OH; disulfide 6-15, 8-13; N-terminus and C-terminus assumed) | 8.0 (± 5.35) % | 0.25 (≈ 0.532 µg/mL) | 0.125 (≈ 0.266 µg/mL) | 0.125 (≈ 0.266 µg/mL) | 0.4 | 0.5 (≈ 1.06 µg/mL) | 0.5 (≈ 1.06 µg/mL) | 1 (≈ 2.13 µg/mL) | 0.25 (≈ 0.532 µg/mL) | 0.5 (≈ 1.06 µg/mL) | 1 (≈ 2.13 µg/mL) | 1 (≈ 2.13 µg/mL) | 47.8 (±11.96) % |  |  | 
